The values that follow come from patent US20060280725A1, “Compositions and methods of treating and diagnosing hepatoma” (priority 2003, published 2006).

For data set [1], the system named is hepatoma cells. The experiment in a line: Cell counts after siRNA1 treatment. Format: cell-based, human. The procedure:
(§1) FIG. 16. […] Panel C are photos from the experiment of panel B.
(§2) The physiological effects of downregulating ASCT2 expression by administration of siRNA1 in hepatoma cells were studied. Glutamine transport, which was measured as nanomoles of glutamine per milligram of total protein per 30s, was examined at 24 hours and at 48 hours in Lipofectamine treated cells and Lipofectamine+50 nM siRNA1. […] Cell counts were made at 48 hours of hepatoma cultures, each of which were started with the same number of viable cells, receiving either Lipofectamine™ 200 alone or Lipofectamine™ 200 plus siRNA1. After 48 hours, a 40% reduction in the number of cells that had received isRNA1 (which comprises SEQ ID NO:3) relative to control cells was observed.

For a further data set, the system named is ASCT2/ATB^0 RNA. The experiment in a line: Northern blot analysis of ASCT2/ATB0 silencing in six human liver cancer cell lines. Format: cell-based. The conditions noted are these: 50 nM. The source says: FIG. 17. […] Panel B are the phospho-imager quantification results of the blot shown in panel A (normalized to beta actin mRNA levels).
RNA was extracted from six (6) human liver cancer cell lines and subject to northern blot analysis using ASCT2/ATB^0 DNA as a probe. Actin RNA was probed as a baseline control. […] Those autoradiograms were subjected to phospho-imager quantitative analysis and normalized to actin RNA expression (FIG. 17, panel B). The designation “L” refers to Liopfectamine™ 200 alone, and “S” refers to Liopfectamine™ 200 plus siRNA at 50 nM.

Another data set concerns ASCT2 mRNA. The experiment in a line: Northern blot analysis of ASCT2 mRNA after siRNA transfection. Format: cell-based, human. How it is done:
FIG. 15. […] B is the phospho-imager quantification of the bands in A. C is the concentration curve for siRNA1, showing that 50 nM is sufficient for maximum silencing of ASCT2 expression.
siRNAs that are specific to ASCT2 were designed using several known algorithms and then checked for specificity. Four (4) siRNAs, i.e., siRNA1 (which comprises SEQ ID NO:3), siRNA2 (which comprises SEQ ID NO:4), siRNA3 (which comprises SEQ ID NO:5), and siRNA4 (which comprises SEQ ID NO:6), were synthesized. SK-Hep cells were transfected with 50 nM concentration of any one of siRNA1, 2, 3 or 4 using Lipofectamine™ 2000 (Invitrogen™ life technologies) based on the protocols set forth in Gitlin, L., Karelsky, S., and Andino, R. (2002), Nature 418: 430-434; Yu, J. Y., DeRuiter, S. L., and Turner, D. L. (2002), Proc. Nat. Acad. Sci. USA 99:6047-6052; and “Transfecting siRNA into Mammalian Cells Using Lipofectamine™ 2000,” Form No. 18057N, Doc. Rev. 102802 by Invitrogen Corporation (2002), which are herein incorporated by reference. At 24 hours and at 48 hours, RNAs were extracted from the transfected cells and the expression of ASCT2 was examined by Northern blot analysis (see FIG. 15A).
Hepatoma cells were then treated with Lipofectamine™ 200 without siRNA1, with 12.5 nM, 25 nM, 50 nM or 100 nM siRNA1.

Data set [2] has as its system hepatoma cells. Description: Glutamine transport after siRNA1 treatment. It counts as cell-based, human. The procedure: as §1, §2

Turning to “siRNA1: siRNA specific to ASCT2, which comprises SEQ ID NO:3 (AGGAGGTGCTCGATTCGTT; listed as DNA, chemistry not given here; listed as Homo sapiens)”, in the data set with hepatoma cells [1] (FIG. 16 panel B), the “cellular loss compared to transfection reagent alone” value is recorded as “leads to cellular loss (death)”. The “reduction in the number of cells relative to control cells” value in the data set with hepatoma cells [1] (after 48 hours, vs Lipofectamine alone) amounted to 40%. Also, in the data set with ASCT2/ATB^0 RNA, the “relative ASCT2/ATB^0 expression (normalized to actin RNA)” value is listed as “significant reduction”. Also, the “relative effectiveness at reducing ASCT2 expression (mRNA relative to actin)” value with ASCT2 mRNA (SK-Hep, 50 nM siRNA, 24 and 48 hours) was “most effective of the four siRNAs”. For the same substance, in the data set with ASCT2 mRNA (tested 12.5, 25, 50, 100 nM), the “concentration sufficient for maximum silencing of ASCT2 expression” value is recorded as 50 nM. For the same substance, the “reduction in glutamine transport relative to controls” value in the data set on hepatoma cells [2] (50 nM, 24 and 48 hours, vs Lipofectamine alone, p<0.01) is given as “greater than 50%”. Moreover, in the data set on hepatoma cells [2] (FIG. 16 panel A), the “ASCT2 function (glutamine uptake)” value is listed as “substantially decreases”.
